Assay results: patent publication US20010007657A1, “Compositions and methods for manipulating glial progenitor cells and treating neurological deficits” (priority 1997, published 2001)
“Also recorded” adds a separate entry of the source.

How the values were obtained:
EGF receptor mRNA = experiment: In situ hybridization of EGF receptor mRNA after nigral 6-OHDA lesion and/or striatal TGFα infusion; format: in vivo, rat
Source text: (§1) Adult male Sprague-Dawley rats weighing 250-300 grams were obtained from Simonsen (Gilroy, Calif.) and assigned to one of five treatment groups: (1) striatal TGFα infusion, nigral 6-OHDA lesion (hereafter, “lesion”); (2) TGFα infusion, no lesion; (3) artificial cerebrospinal (aCSF) infusion, lesion; (4) aCSF infusion, no lesion; (5) no infusion, no lesion. Four to eight animals were used per experimental group. The animals were monitored after each surgical procedure until fully recovered and maintained at all other times in a temperature and humidity controlled vivarium.
(§2) Rats were anesthetized with 8 mg xylazine and 100 mg ketamine per kilogram body weight. […] The success and extent of 6-OHDA lesions were monitored by tyrosine hydroxylase (TH) mRNA in situ hybridization in the midbrain. TH is the rate-limiting enzyme in the dopamine synthetic pathway and is a common marker for dopamine-producing neurons. One animal with an incomplete lesion (retaining significant numbers of nigral TH-IR cells) was excluded from the study and is not included in the total number of animals.
(§3) Osmotic minipumps (model 2002, Alzet, Inc.) were implanted four to five weeks post-lesion. […] The minipump itself was placed subcutaneously in the interscapular region.
(§4) At the end of the infusion period, animals were sacrificed by decapitation. Their brains were quickly removed, frozen in isopentane at −20° C., and stored at −70° C. Coronal cryostat sections were cut at 20 μm and thaw-adhered to Vectabond™ (Vector Labs, Inc.) coated slides in ordered anterior-to-posterior rows. The sections were postfixed with 4% paraformaldehyde in 0.1 M phosphate buffer (pH 7.4) for one hour, rinsed in phosphate buffer and air dried. Sections were stored with desiccant at −20° C. until processed.
TGFα mRNA probes were generated from a 550 nucleotide XbaI/BamHI cDNA fragment from the 5′ end of rat TGFα subcloned into pGEM 7Zf (Promega, Inc.). Antisense and sense probes were transcribed with SP6 and T7 polymerases, respectively. Rat EGF receptor mRNA probes were produced from a 718 base pair BamHI/SphI insert from the 5′ end of the gene in pGEM 7Zf. Probes for rat TH were created using the 1.2 kb BamHI/EcoRI fragment subcloned into pGEM 7Zf. Antisense subclones for EGF receptor and TH were transcribed with T7 polymerase. Sense subclones for EGF receptor and TH were transcribed with SP6 polymerase. All probes were radiolabeled by transcription in the presence of [^35S]UTP (NEN Research Products, Inc.).
In situ nucleic acid hybridization was performed according to the method described by Simmons et al. 1989, supra). Parallel sections from experimental and control animals were hybridized overnight at 65° C. with sense or antisense probes at a concentration of 10^7 cpm/ml.

TGFα mRNA = experiment: In situ hybridization of TGFα mRNA after nigral 6-OHDA lesion and/or striatal TGFα infusion; format: in vivo, rat
Source text: as §1, §2, §3, §4
TGFα mRNA probes were generated from a 550 nucleotide XbaI/BamHI cDNA fragment from the 5′ end of rat TGFα subcloned into pGEM 7Zf (Promega, Inc.). Antisense and sense probes were transcribed with SP6 and T7 polymerases, respectively. […]

[1] = test system: neural precursor cells of the subependymal zone; experiment: Periventricular cellular expansion and striatal ridge formation (thionin, silver staining, immunohistochemistry); format: in vivo, rat; settings: for (incidence of striatal ridge) / Expansion (incidence of cellular expansion along ventricle): midstriatal infusion 0.5 μg/day
Description: Adult male Sprague-Dawley rats weighing 250-300 grams were used throughout the study. Twenty-four animals received standard midstriatal infusions of rat TGFα (0.5 μg/day; Sigma Chemical Co.). Another 26 rats received either artificial cerebrospinal fluid (“aCSF”) or no infusion. A subset of animals in the standard TGFα infusion group and the control group received stereotaxic 6-OHDA injections into the substantia nigra 48 hours after the infusions were begun. Animals used in this portion of the study were classified into six groups according to their infusion-lesion combination, as follows: TGFα infusion, lesion (n=13); TGFα infusion, no lesion (n=11); aCSF infusion, lesion (n=12); aCSF infusion, no lesion (n=9); no infusion, lesion (n=1); no infusion, no lesion (n=4).
Additional animals received TGFα infusions into other regions of striatum, the lateral ventricle, cerebral cortex, or the septum. Four more animals (two per group) received midstriatal TGFα infusions at one-half or one-tenth the standard dose. Also, two animals received midstriatal infusions of epidermal growth factor (EGF) instead of TGFα. The EGF administered in these rats was at the standard 0.5 μg/day dose. All of the animals in these extra groups were lesioned. Rats in all of the experiments were typically perfused one to 16 days postlesion (3-18 days of infusion). […] Brain sections were prepared and stained using various immunocytochemical and histochemical techniques.
Rats were anesthetized with 8 mg xylazine and 100 mg ketamine/kg. Infusions of TGFα were provided up to 18 days by Alzet osmotic minipump (2002). The minipumps were filled to about 200 μl with either aCSF for control animals or 20 μg TGFα in 400 μl of aCSF (50 μg/ml) for experimental animals. Under sterile conditions, the infusion cannula was positioned to stereotaxic coordinates (+1.2 A/P; +2.7 M/L; −6.0 D/V) based on Bregma (Paxinos and Watson, The Rat Brain in Stereotaxic Coordinates, Academic Press, San Diego, 1986) and cemented to the top of the skull with dental cement. The infusate was delivered via cannula at approximately 0.5 μl/hour. Some additional control animals received infusions either into the lateral ventricle, the overlying cortex, or other areas.
Forty-eight hours after the minipump implant, rats were anesthetized as above. A chilled 4.8 mg/ml solution of 6-OHDA HCl was prepared immediately prior to injection. […] A 6-8 μl volume was injected at a rate of 1 μl/minute.
Animals were perfused with 500 ml of 4% paraformaldehyde in 0.1 M phosphate buffered saline (PBS; pH 7.4) one to 16 days postlesion and their brains placed into 20% sucrose. The next day, the brains were frozen in isopentane at −20° C. Forty-micron coronal sections were then cut on a freezing microtome into 2% paraformaldehyde in 0.1 M PBS. Continuous sections were taken through the striatum and substantia nigra-VTA. Representative sections were taken through the rest of the brain.
Microtomed brain sections for Nissl staining were mounted onto gelatin-coated slides and allowed to dry overnight. They were then dehydrated and rehydrated through ethanol baths, and placed in Thionin solution for approximately four minutes. The sections were dehydrated through the series of ethanol baths, cleared in successive Histoclear™ washes, and coverslipped. Section were viewed under light microscopy and photographed with Technical Pan Film™ (Kodak, Inc.) at ISO 100 (HC-110 processing for six minutes).
Degenerating fibers and cells of the ridge were labeled using a modification to the Nauta staining method, similar to Procedure I of Fink-Heimer (Giolli and Karamanlidis, In: Neuroanatomical Research Techniques, R. T. Robertson, Ed., pp. 211-240, Academic Press, New York, 1978).

[2] = test system: stem and neuroprogenitor cells in the SVZ; experiment: Morphological studies of proliferation, directed migration and differentiation induction (Example 3); format: in vivo, rat
Source text: In situ hybridization histochemistry: TGFα mRNA probes were generated from a 550 nucleotide XbaI/BamHI cDNA fragment from the 5′ end of rat TGFα, subcloned into pGEM 7Zf (Promega, Inc). Antisense and sense probes were transcribed with SP6 and T7 polymerases, respectively. Rat EGF receptor mRNA probes were produced from a 718 base pair BamHI/SphI insert from the 5′ end of the gene in pGEM 7Zf. Probes for rat TH were created using the […] BamHI/EcoRI fragment subcloned into pGEM 7Zf. Antisense subclones for EGF receptor and TH were transcribed with T7 polymerase. Sense subclones for EGF receptor and TH were transcribed with SP6 polymerase. All probes were radiolabeled by transcription in the presence of [35S]UTP (NEN Research, Inc). In situ nucleic acid hybridization was performed according to Simmons (1989) J. Histochem. 12:169-181). Parallel sections from experimental and control animals were hybridized overnight at 65° C. with sense or antisense probes at a concentration of […]. Adjacent sections from the same animals were hybridized to each of the probes so that direct comparison could be made of their anatomical distributions. […] After successful development of the autoradiography film, analysis and quantitation was done using MCID (Imaging Research, Inc).

[3] = test system: stem and neuroprogenitor cells in the SVZ; experiment: as above; format: in vivo, rat; remark: listed apart in the source
[4] = test system: neural precursor cells of the subependymal zone; experiment: Periventricular cellular expansion and striatal ridge formation (thionin, silver staining, immunohistochemistry); format: in vivo, rat; settings: three months after the TGFα infusion pump was removed
[5] = midstriatal EGF infusion 0.5 μg/day, lesioned animals
[6] = intracerebroventricular (ICV) infusion ipsilateral to lesion, two weeks
[7] = lower doses of TGFα (one-half or one-tenth the standard dose), lesioned
[8] = infusion into the lateral ventricle, 6-OHDA-lesioned

Molecule: Cl.NCCc1cc(O)c(O)cc1O [6-OHDA, 6-hydroxydopamine HCl, reference compound]
- EGF receptor hybridization in the ipsilateral SN-VTA (EGF receptor mRNA; 6-OHDA lesion, midbrain): abolished
- striatal and subependymal EGF receptor hybridization (EGF receptor mRNA; 6-OHDA lesioned animals compared to normal animals): unchanged
- contralateral TGFα mRNA hybridization (TGFα mRNA; unilateral nigral 6-OHDA lesion): no effect
- reduction of TGFα mRNA hybridization in the ipsilateral striatum (TGFα mRNA; unilateral nigral 6-OHDA lesion, several weeks post-lesion): 25%

Molecule: EGF: epidermal growth factor, infused midstriatally instead of TGFα at 0.5 μg/day (NSDSECPLSHDGYCLHDGVCMYIEALDKYACNCVVGYIGERCQYRDLKWWELR; Epidermal growth factor; UniProt P01133 971-1023, looked up)
- cellular expansion along the ventricle [1, 5]: induced the cellular expansion along the ventricle
- formation of the striatal ridge [1, 5]: did not induce formation of the striatal ridge

Molecule: TGFα: transforming growth factor alpha polypeptide, EGF-family growth factor that binds the EGF receptor; infused into rat brain
- difference in distance between lateral extents of the ridges and the ventricle wall, 12 vs 16 days of infusion ([1]; 6-OHDA lesion, midstriatal TGFα): approximately 1.6 mm
- distance of ventral portion of the ridge from the ventricle wall ([1]; 12 days infusion, 6-OHDA lesion, midstriatal TGFα): ≤ 400 μm
- distance of ventral portion of the ridge from the ventricle ([1]; 16 days infusion, 6-OHDA lesion, midstriatal TGFα): up to two mm
- nestin immunostaining of the ridge ([1]; TGFα infusion fourteen days, lesioned): intensely stained
- GFAP immunostaining of striatal ridge and cellular expansion ([1]; TGFα-induced ridge, two weeks of infusion): failed to stain
- expansion of cells along the ipsilateral ventricle ([1]; cortical infusions slightly penetrating the corpus callosum, two weeks, lesioned): stimulated expansion of cells
- cell density along the lateral ventricle ([1]; dorsal cortical infusions not penetrating the corpus callosum, two weeks, lesioned): no discernable effect
- buildup of cells in the adjacent ventricular wall [1, 6]: stimulated the buildup of cells
- formation of the striatal ridge [1, 6]: did not induce formation of the striatal ridge
- buildup of cells along the ventricle ipsilateral to the infusion (thionin) ([1]; intrastriatal TGFα infusions of six days or more): dramatic buildup of cells
- cellular expansion and ridge formation [1, 7]: induced both the cellular expansion and ridge formation
- number of cells in expansion and ridge (qualitative) [1, 7]: decreased
- (incidence of striatal ridge) ([1]; 6-OHDA lesion, n=13): 92%
- Expansion (incidence of cellular expansion along ventricle) ([1]; 6-OHDA lesion, n=13): 100%
- (incidence of striatal ridge) ([1]; no lesion, n=11): 27%
- Expansion (incidence of cellular expansion along ventricle) ([1]; no lesion, n=11): 100%
- formation of septal ridges ([1]; septal and some striatal infusions, two weeks, lesioned): stimulated the formation of septal ridges
- rats with ridge of dense EGF receptor mRNA hybridization in ipsilateral striatum (EGF receptor mRNA; TGFα infusion/nonlesion group): one of six
- rats with ridge of dense EGF receptor mRNA hybridization in ipsilateral striatum (EGF receptor mRNA; combined TGFα infusion/6-OHDA lesion group): five of the six
- EGF receptor mRNA hybridization in the ipsilateral subependymal region (EGF receptor mRNA; striatal TGFα infusion two weeks, lesioned and unlesioned): dramatically increased; also recorded: approximately doubled
- expression of EGFr mRNA in the SVZ ([2]; 6-OHDA lesion and TGF alpha infusion): significant increase
- expression of EGFr mRNA in the SVZ ([2]; TGF alpha infusion, no 6-OHDA lesion): significant increase
- effectiveness in inducing ridge formation ([3]; 10 ug dose): minimally less effective
- thickening of the SVZ ([3]; 4 to 6 days of continuous infusion, lesioned animals): pronounced thickening of the SVZ
- effectiveness in inducing ridge formation ([3]; 50 and 100 ug dose): equally effective
- 5′BrdU incorporation into the SVZ ([3]; first three days of infusion): massively increased incorporation
- nestin staining of SVZ and ridge cells ([3]; from the fourth day of infusion): nestin-positive
- SVZ proliferation [3, 8]: temporary proliferation of SVZ cells
- migratory ridge [3, 8]: no migratory ridge
- SVZ proliferation ([3]; infusion into the septum): massive proliferation of the SVZ
- β-III tubulin (neuronal lineage) staining ([3]; starting at 14 days of infusion): β-III tubulin positive cells were seen
- tyrosine hydroxylase (TH) positive cells in the striatum ([3]; third and fourth week of infusion, 6-OHDA-lesioned): increasing numbers of TH positive cells
- persistence of the ridge in the striatum [4]: still prominent
- TGFα mRNA hybridization in the infused striatum (TGFα mRNA; unlesioned animals, striatal TGFα infusion two weeks, vs contralateral or normal striata): unchanged
- apomorphine-induced rotations (6OHDA lesioned animals; animals receiving the TGFα infusions): significant reduction
- improvement in rotational behavior, TGFα versus aCSF-treated control animals (6OHDA lesioned animals; infusion 14 days after 6-OHDA lesion, 14-day striatal infusion, p<0.05): 38%
- animals not exhibiting rotational behavioral asymmetry following apomorphine (6OHDA lesioned animals; infusion contemporaneous with 6-OHDA lesion, entire four-week period): 10 of the 11
- other motor behaviors (exploratory, consummatory behavior) (6OHDA lesioned animals; rat, in vivo): did not appear to be adversely affected
